Here are results for 20 compounds from patent publication US20120128630A1, “1-(6 MEMBERS AZO-HETEROCYCLIC)-PYRROLIN-2-ONE COMPOUNDS AS INHIBITORS OF HEPATITIS C NS5B POLYMERASE, THE PHARAMACEUTICAL COMPOSITION THEREOF AND THEIR THERAPEUTIC USE” (priority 2009, published 2012).

SMILES strings stand for the structures. Where two headings read alike, the source gives them in different places. Bounds are passed on as bounds.

For test [1], the system named is HCV replicon Luc Neo ET. The test can be described thus: Luc Neo ET Replicon assay. The format is cell-based, Hepatitis C virus. As to conditions: Table 3, titled RdRp enzyme assay results, EC50_Replicon LucneoET, 72 hours with compound, luciferase. How it is done: Human Hepatoma Huh-7 cell line was maintained in DMEM/HAMF-12 supplemented with 10% SVF, 4 mM glutamine, […] Na pyruvate, 1% penistreptomycine. HCV replicon containing Huh-7 cell lines Huh-9.13 and Luc Neo ET (Reblikon) were maintained in DMEM supplemented with 10% SVF, 2 mM glutamine, and 1×NEAA, 100 U/ml penicillin, and 100 μg/ml streptomycine. Replicon cells were maintained in medium supplemented with 1 mg/ml G418 for replicon Huh-9.13 and 0.5 mg/ml for Luc Neo et replicon unless indicated otherwise. Huh-7 and HCV replicon cell lines were maintained at 37° C. and 5% CO2 in a humidified atmosphere. Cells were dissociated at sub confluence with trypsin EDTA 1×.
Replicon Luc Neo ET is a bicistronic expression constructs (Lohmann et al, 1999, Science 285, 110-113). In brief, the structural genes of the HCV genome were replaced by heterologous sequences; the gene encoding the neomycin phosphotransferase (NPT) and the internal ribosome entry site (IRES) of the encephalomyocarditis virus (EMCV). The bicistronic construct is therefore composed of the following elements: HCV-IRES nucleotides 1-389, the NPT gene, the EMCV-IRES directing translation of downstream HCV sequences from NS2 or NS3 up to the authentic 3′ end of the genome. HCV Polyprotein harbours the cell culture adaptive mutations E1202G, T1280I, K1846T. G418-resistance is only possible with cells containing high amounts of replicon.
Cells were dissociated the day before addition of compounds and seeded in 96 well-plates at a final concentration of 77 777.77 cells.ml^−1.well^−2 in 90 μl final volume of culture medium per well and were maintained at 37° C. and 5% CO2 in a humidified atmosphere for 24 hours. 10 μl of compounds to be tested were added 24 hours after seeding. Final concentration of DMSO was 1%. Cells were incubated in the presence of compounds for 72 hours after which expression of firefly luciferase reporter gene was quantified. Briefly, culture medium was removed and cells were lysed by addition of 100 μl of lysis buffer containing 125 mM Tris Phosphate ph 7.8, 10 mM EDTA, 5 mM DTT, 50% glycerol and 5% Triton. Plates were vortexed 10 min at 1300 rpm. Cell lysat was transferred in OpaqueWhite Assay 96 well Flat Bottom plates. 100 μl of luciferin solution 1× were added to each well. Luciferin solution contained 40 mM Tris Phosphate ph 7.8, 0.2 mM EDTA, 67 mM DTT, 2.14 mM MgCl2, 5.4 mM MgSO4, 4.7×10^−4 M luciferin, 5.3×10^−4 M ATP and 2.7×10^−4 M Acetyl co enzyme A. Luminescence was immediately measured with Berthold Microlumat Plus LB 96V luminometer with an integration of 0.5 sec Inhibition was calculated using the formula:
% inhibition=1−[(RLUsample−RLUbackground)/(RLUsignal−RLUbackground)]
(Replicon systems follow genome replication, usually without infectious particles.)

Test [2] concerns the target T1, HCV NS5B genotype 1b (Hepatitis C virus genotype 1b, UniProt Q9WMX2).
T1 construct: The protein was expressed with a 21 amino acid C-terminal deletion to remove transmembrane domain; expressed in transfected cells; host or cells: Huh-7
The experiment in a line: 3D-SCREEN assay (NS5B 3D-Screen platform, luciferase reporter gene). Format: cell-based. The essentials: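 Huh-7 cells transiently co-transfected with NS5BΔ21/Gal4-DBD, 3D-Sensor peptide I4/VP16 and firefly luciferase reporter. Compounds added 2 h after seeding, 1% DMSO final, 24 h incubation. Luciferase luminescence read; % inhibition relative to no-compound signal.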
A general note: In a reporter assay the amount or activity of a reporter protein is the signal.

Where [3] appears, read: EC50_3DS_NS5B, Table 2, titled Replicon assay results.

Consider `Cc1ccc(C(=O)C2=C(O)C(=O)N(c3ccccn3)C2c2ccc(C(C)(C)C)cc2)cc1` (stereo not shown) [Example 2, 5-(4-tert-butyl-phenyl)-3-hydroxy-4-(4-methyl-benzoyl)-1-pyridin-2-yl-1,5-dihydro-pyrrol-2-one], for which the EC50 in test [1] (Hepatitis C virus, 72 h) is below 10 µM; in test [2] (EC50_3DS_NS5B, Table 1, 3D-SCREEN assay results, Huh-7 cells, 24 hours with compound, firefly luciferase reporter) it was 9 µM.
In the case of `CC(=O)OC1=C(C(=O)c2ccc(C(C)C)cc2)C(c2ccc(OC(F)(F)F)cc2)N(c2ccc(C)nn2)C1=O` (stereo not shown) [Example 86, Acetic acid 4-(4-isopropyl-benzoyl)-1-(6-methyl-pyridazin-3-yl)-2-oxo-5-(4-trifluoromethoxy-phenyl)-2,5-dihydro-1H-pyrrol-3-yl ester], the EC50 is below 1 µM in test [1] (Hepatitis C virus, 72 h) and below 0.1 µM in test [2] (setting [3]).
On the same counts, the results for `Cc1ccc(N2C(=O)C(O)=C(C(=O)c3ccc(OC(F)(F)F)cc3)C2c2ccc(C(C)C)cc2)cn1` (stereo not shown) [Example 94, 3-hydroxy-5-(4-isopropyl-phenyl)-1-(6-methyl-pyridin-3-yl)-4-(4-trifluoromethoxy-benzoyl)-1,5-dihydro-pyrrol-2-one] are below 10 µM and below 10 µM.
As for `Cc1ccc(N2C(=O)C(O)=C(C(=O)c3ccc(OC(F)(F)F)cc3)C2c2ccc(OC(F)(F)F)cc2)nn1` (stereo not shown) [Example 96, 3-hydroxy-1-(6-methyl-pyridazin-3-yl)-4-(4-trifluoromethoxy-benzoyl)-5-(4-trifluoromethoxy-phenyl)-1,5-dihydro-pyrrol-2-one], the EC50 was below 1 µM in test [1] (Hepatitis C virus, 72 h) and below 1 µM in test [2] (setting [3]).
For `Cc1ccc(N2C(=O)C(O)=C(C(=O)c3ccc(C(C)C)cc3)C2c2ccc(C(F)(F)F)nc2)nn1` (stereo not shown) [Example 98, 3-hydroxy-4-(4-isopropyl-benzoyl)-1-(6-methyl-pyridazin-3-yl)-5-(6-trifluoromethyl-pyridin-3-yl)-1,5-dihydro-pyrrol-2-one], the EC50 in test [1] (Hepatitis C virus, 72 h) was below 10 µM; in test [2] (setting [3]) it was below 10 µM.
For the compound `Cc1ccc(N2C(=O)C(O)=C(C(=O)c3ccc(C(C)C)cc3)C2c2ccc(C(F)(F)F)cn2)nn1` (stereo not shown) [Example 106, 3-hydroxy-4-(4-isopropyl-benzoyl)-1-(6-methyl-pyridazin-3-yl)-5-(5-trifluoromethyl-pyridin-2-yl)-1,5-dihydro-pyrrol-2-one], the EC50 is below 10 µM in test [1] (Hepatitis C virus, 72 h) and below 10 µM in test [2] (setting [3]).
Turning to `CCOc1ccc(C2C(C(=O)c3ccc(C(C)C)cc3)=C(O)C(=O)N2c2ccc(C)nn2)cn1` (stereo not shown) [Example 110, 5-(6-ethoxy-pyridin-3-yl)-3-hydroxy-4-(4-isopropyl-benzoyl)-1-(6-methyl-pyridazin-3-yl)-1,5-dihydro-pyrrol-2-one], the EC50 in test [1] (Hepatitis C virus, 72 h) is below 1 µM; in test [2] (setting [3]), below 1 µM.
As to `Cc1ccc(N2C(=O)C(O)=C(C(=O)c3ccc(C(C)C)cc3)C2c2ccc(C(C)C)cn2)nn1` (stereo not shown) [Example 111, 3-Hydroxy-4-(4-isopropyl-benzoyl)-5-(5-isopropyl-pyridin-2-yl)-1-(6-methyl-pyridazin-3-yl)-1,5-dihydro-pyrrol-2-one], the EC50 in test [1] (Hepatitis C virus, 72 h) was below 10 µM; in test [2] (setting [3]) it was below 10 µM.
As for `Cc1ccc(N2C(=O)C(O)=C(C(=O)c3ccc(OC(C)C)cc3)C2c2ccc(OC(F)(F)F)cc2)nn1` (stereo not shown) [Example 115, 3-hydroxy-4-(4-isopropoxy-benzoyl)-1-(6-methyl-pyridazin-3-yl)-5-(4-trifluoromethoxy-phenyl)-1,5-dihydro-pyrrol-2-one], the EC50 was below 10 µM in test [1] (Hepatitis C virus, 72 h) and below 10 µM in test [2] (setting [3]).
Consider `CC(C)c1ccc(C(=O)C2=C(O)C(=O)N(c3ccc(Cl)nn3)C2c2ccc(OC(F)(F)F)cc2)cc1` (stereo not shown) [Example 118, 1-(6-chloro-pyridazin-3-yl)-3-hydroxy-4-(4-isopropyl-benzoyl)-5-(4-trifluoromethoxy-phenyl)-1,5-dihydro-pyrrol-2-one], for which the EC50 is below 1 µM in test [1] (Hepatitis C virus, 72 h) and below 1 µM in test [2] (setting [3]).
With `C#Cc1ccc(C2C(C(=O)c3ccc(C(C)C)cc3)=C(O)C(=O)N2c2ccc(C)nn2)cc1` (stereo not shown) [Example 137, 5-(4-ethynyl-phenyl)-3-hydroxy-4-(4-isopropyl-benzoyl)-1-(6-methyl-pyridazin-3-yl)-1,5-dihydro-pyrrol-2-one], the EC50 was below 10 µM in test [1] (Hepatitis C virus, 72 h) and below 10 µM in test [2] (setting [3]).
Consider `Cc1ccc(N2C(=O)C(NS(C)(=O)=O)=C(C(=O)c3ccc(C(C)C)cc3)C2c2ccc(OC(F)(F)F)cc2)nn1` (stereo not shown) [Example 149, N-[4-(4-isopropyl-benzoyl)-1-(6-methyl-pyridazin-3-yl)-2-oxo-5-(4-trifluoromethoxy-phenyl)-2,5-dihydro-1H-pyrrol-3-yl]-methanesulfonamide], for which the EC50 in test [1] (Hepatitis C virus, 72 h) is below 1 µM; in test [2] (setting [3]), below 1 µM.
Take `CCOc1ccc(C2C(C(=O)c3ccc(C(C)C)cc3)=C(O)C(=O)N2c2ccc(C)nn2)cn1` (stereo not shown) [Example 155, 2-ethoxy-5-[4-hydroxy-3-(4-isopropyl-benzoyl)-1-(6-methyl-pyridazin-3-yl)-5-oxo-2,5-dihydro-1H-pyrrol-2-yl]-pyridinium; chloride]: the EC50 was below 1 µM in test [1] and below 1 µM in test [2] (read-out: EC50_3DS_NS5B, Table 2, titled Replicon assay results).
Turning to `Cc1ccc(N2C(=O)C(O)=C(C(=O)c3ccc(C(C)C)cc3)C2c2ccc(C(C)(F)F)cc2)nn1` (stereo not shown) [Example 158, 5-[4-(1,1-difluoro-ethyl)phenyl]-3-hydroxy-4-(4-isopropyl-benzoyl)-1-(6-methyl-pyridazin-3-yl)-1,5-dihydro-pyrrol-2-one], the EC50 is below 1 µM in test [1] (Hepatitis C virus, 72 h) and below 0.1 µM in test [2] (setting [3]).
In the same order, the values of `Cc1ccc(N2C(=O)C(O)=C(C(=O)c3ccc(C(F)(F)F)cc3)C2c2ccc(OC(F)(F)F)cc2)nn1` (stereo not shown) [Example 162, 3-hydroxy-1-(6-methyl-pyridazin-3-yl)-5-(4-trifluoromethoxy-phenyl)-4-(4-trifluoromethyl-benzoyl)-1,5-dihydro-pyrrol-2-one] are below 10 µM and below 1 µM.
For `Cc1ccc(N2C(=O)C(O)=C(C(=O)c3ccc(OC(F)(F)F)cc3)C2c2ccc(OC(C)C)nc2)nn1` (stereo not shown) [Example 169, 3-hydroxy-5-(6-isopropoxy-pyridin-3-yl)-1-(6-methyl-pyridazin-3-yl)-4-(4-trifluoromethoxy-benzoyl)-1,5-dihydro-pyrrol-2-one], the EC50 in test [1] (Hepatitis C virus, 72 h) is below 1 µM; in test [2] (setting [3]), below 1 µM.
For the compound `CCOc1ccc([C@@H]2C(C(=O)c3ccc(C(C)C)cc3)=C(O)C(=O)N2c2ccc(C)nn2)cn1` [Example 192, 5(R)-(6-ethoxy-pyridin-3-yl)-3-hydroxy-4-(4-isopropyl-benzoyl)-1-(6-methyl-pyridazin-3-yl)-1,5-dihydro-pyrrol-2-one], the EC50 in test [1] (Hepatitis C virus, 72 h) was below 1 µM; in test [2] (setting [3]), below 1 µM.
With `Cc1ccc(N2C(=O)C(O)=C(C(=O)c3ccc(C(C)C)cc3)[C@H]2c2ccc(C(F)(F)F)nc2)nn1` [Example 195, 3-hydroxy-4-(4-isopropyl-benzoyl)-1-(6-methyl-pyridazin-3-yl)-5(R)-(6-trifluoromethyl-pyridin-3-yl)-1,5-dihydro-pyrrol-2-one], the EC50 is below 1 µM in test [1] (Hepatitis C virus, 72 h) and below 1 µM in test [2] (setting [3]).
Consider `Cc1ccc(N2C(=O)C(O)=C(C(=O)c3ccc(C(C)C)cc3)[C@H]2c2ccc(C(C)(F)F)cc2)nn1` [Example 196, 5(R)-[4-(1,1-difluoro-ethyl)-phenyl]-3-hydroxy-4-(4-isopropyl-benzoyl)-1-(6-methyl-pyridazin-3-yl)-1,5-dihydro-pyrrol-2-one], for which the EC50 in test [1] (Hepatitis C virus, 72 h) is below 1 µM; in test [2] (setting [3]), below 1 µM.
For the compound `Cc1ccc(N2C(=O)C(NS(C)(=O)=O)=C(C(=O)c3ccc(C(C)C)cc3)[C@H]2c2ccc(OC(F)(F)F)cc2)nn1` [Example 198, N-[4-(4-isopropyl-benzoyl)-1-(6-methyl-pyridazin-3-yl)-2-oxo-5(R)-(4-trifluoromethoxy-phenyl)-2,5-dihydro-1H-pyrrol-3-yl]-methanesulfonamide], the EC50 was below 1 µM in test [1] (Hepatitis C virus, 72 h) and below 1 µM in test [2] (setting [3]).
